What all share (assay type): cell-based
For experiment [1], the target named is T1, hFFA2 (Homo sapiens, UniProt O15552).
T1 sequence (O15552 1-330): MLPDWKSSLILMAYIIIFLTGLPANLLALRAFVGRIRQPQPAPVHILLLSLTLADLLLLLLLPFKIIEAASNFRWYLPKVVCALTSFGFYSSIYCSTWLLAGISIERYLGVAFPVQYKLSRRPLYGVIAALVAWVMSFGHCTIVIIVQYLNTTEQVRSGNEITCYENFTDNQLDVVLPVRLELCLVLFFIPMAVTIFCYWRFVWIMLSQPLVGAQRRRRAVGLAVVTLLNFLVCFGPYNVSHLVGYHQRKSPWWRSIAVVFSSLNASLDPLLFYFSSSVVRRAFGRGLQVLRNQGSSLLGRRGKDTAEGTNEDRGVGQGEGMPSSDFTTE
Put plainly: yeast reporter assay, antagonism. (In general: Reporter assays use an easily measured gene product as a stand-in for the process of interest.)

Experiment [2] concerns the target T1, hFFA2. Put plainly: yeast FUS1-HIS3 reporter growth assay.
The target in experiment [3] is T1, hFFA2. Kind of experiment: LANCE cAMP assay, U2OS cells. A general note: Time-resolved FRET reads energy transfer from a long-lived donor to a nearby acceptor.
Experiment [4] concerns the target T1, hFFA2. Put plainly: yeast reporter assay, operational model fit.

Results on four compounds are retold here after article PMC4492757 (Pharmacology Research & Perspectives, 2015).

The Kb is the equilibrium dissociation constant of an antagonist, usually derived from a functional assay. Low readings indicate higher antagonist affinity, high ones lower antagonist affinity. The compound `O=C(N[C@@H](Cc1c[nH]c2ccccc12)C(=O)O)c1ccc(Cl)cc1` [N-CBT, N-(4-Chlorobenzoyl)-L-tryptophan] had an antagonist dissociation constant (Kb) in experiment [1] of 501 nM. For orientation: IC50 means the concentration needed to halve the response being measured. Consider `CN(C(=O)[C@H]1CCCC[C@H]1C(=O)O)c1nc(-c2ccccc2Cl)cs1` [compound 101, cis-2-((4-(2-chlorophenyl)thiazol-2-yl)(methyl)carbamoyl)cyclohexaneccarboxylic acid], for which the IC50 in experiment [2] was 186 nM. The term EC50 denotes the concentration at which the effect is half-maximal. Read a high EC50 as a need for much substance. Take `CC(=O)O` [C2, acetate]: the EC50 in experiment [3] was 126000 nM.

Usually Kd stands for the equilibrium constant for the complex coming apart. A low value points to higher affinity. As for `O=C(O)C[C@H](C(=O)Nc1nc(-c2ccccc2Cl)cs1)c1ccccc1` [compound 9, (S)-4-(4-(2-chlorophenyl)thiazol-2-ylamino)-4-oxo-3-phenylbutanoic acid], binding in experiment [4] was put at a Kd of 155 nM.
